The values below are quoted from earlier work in patent US20200121616A1, “COMPOSITIONS COMPRISING CANNABIDIOL AND HYALURONIC ACID FOR TREATING INFLAMMATORY JOINT DISEASES” (BOL PHARMA LTD., priority 2015, published 2020).

As for Hyaluronic acid, the pKa result is reported as “about 2.8”.
